PMC11323273, “A Multipurpose Metallophore and Its Copper Complexes with Diverse Catalytic Antioxidant Properties to Deal with Metal and Oxidative Stress Disorders: A Combined Experimental, Theoretical, and In Vitro Study” (Inorganic Chemistry, 2024)
Read-outs that look alike come from different tables or passages of the source.

Key:
[1] = system: Rat glioma C6 cells; assay: ROS mitigation in cells using DCFH-DA; type: cell-based
Experimental: Rat C6 glioma cells were grown in a 25 cm^2 culture flask containing Dulbecco’s modified Eagle medium (DMEM) supplemented with 10% (v/v) fetal bovine serum (FBS) at 37 °C in a 5% CO2 atmosphere.
To evaluate redox homeostasis, the level of ROS was assessed using the redox-sensitive dye 2′,7′-dichlorodihydrofluorescein diacetate (DCFH-DA). Rat C6 glioma cells were seeded at a density of 1 × 10^5 cells/well in a 96-well plate and cultured in high-glucose DMEM supplemented with 10% (v/v) FBS at 37 °C in a 5% CO2 atmosphere. The cells were pretreated with the compounds (25 μmol L^–1) and incubated for 24 h. The cells were washed and subjected to different oxidative stress models for 1 h, including (i) metallic stress via the addition of 25 μmol L^–1 CuCl, (ii) direct addition of a 25 μmol L^–1 hydrogen peroxide solution, (iii) superoxide anion (O2^•–) generated by the xanthine ([…])/xanthine oxidase (0.1 unit/mL) enzymatic system, and (iv) hydroxyl radical (^•OH) generated by the Fenton reaction using 0.4 μmol L^–1 CuCl and 4 μmol L^–1 H2O2. The concentrations refer to the final concentrations of each well. After exposure to the oxidative stress conditions, the cells were washed and incubated with DCFH-DA (10 μmol L^–1) for 45 min. The fluorescence was measured using the model M200 Tecan Infinite microplate reader with excitation and emission wavelengths of 450 and 535 nm, respectively.

[2] = cited from earlier work
[3] = Potentiometric titration: protonation equilibria and species distribution; type: physicochemical; conditions: 70:30 ethanol/water solution, 25 °C, read-out: log K [H2L^+]/[HL][H^+] (pKa of the amine group)
Experimental: The potentiometric studies were carried out with a Corning 350 digital pH meter fitted with blue-glass and Ag/AgCl reference electrodes calibrated to read −log[H^+] directly, designated as pH. Doubly distilled water in the presence of KMnO4 was used to prepare the solutions. For the ligands, the study was performed in a 70:30 ethanol/water solution, while the copper complexes were studied in water. The electrode was calibrated using the data obtained from the potentiometric titration of a known volume of a standard 0.100 mol L^–1 HCl solution with a standard 0.100 mol L^–1 KOH solution. The ionic strength of the HCl solution was maintained at 0.100 mol L^–1 upon the addition of KCl. […]
The titration curves were processed with BEST7,[86] which has as input file: titrant concentration, an initial value for the number of millimoles of the species under investigation, the volume increments of the titrant added, and the corresponding values of pH measured during titration. The program uses the least-squares method to minimize the differences between the calculated pH values and the experimental ones obtained during the titration, keeping fixed the values of the known equilibrium constants, such as those for the hydrolysis of the metal ion,[87] and varying the values of the constants to be determined, minimizing the error. […]

[4] = design: method as in PMID 4833643; conditions: cited from earlier work
[5] = design: method as in doi:10.3390/pr10010132; conditions: studied under the same conditions; read-out: RSA50; cited from earlier work

With [Cl][Cu] [Cu(I), CuCl, reference compound] the “increase of cell fluorescence (ROS level) compared to the control” value ([1]; 25 μmol L^–1 CuCl, 1 h) was 3 fold.
For [Cl][Cu][Cl] [CuCl2·2H2O], the IC50 [2] is listed as 0.91 ± 0.191 µM.
For CC(O)CNCc1ccccn1 (stereo not shown) [HL, 1-(pyridin-2-ylmethylamino)propan-2-ol], the “antioxidant effect in cells exposed to hydroxyl radical” value ([1]; pretreatment 25 μmol L^–1, 24 h, 0.4 μmol L^–1 CuCl and 4 μmol L^–1 H2O2 1 h) was “HL ∼ 1 > 2”, the “redox status of cells exposed to Cu(I) (DCFH-DA fluorescence)” value ([1]; pretreatment 25 μmol L^–1, 24 h, 25 μmol L^–1 CuCl 1 h) was “no change in the cell redox status” and the “protection of cells against exogenous H2O2 (redox level)” value ([1]; pretreatment 25 μmol L^–1, 24 h, 25 μmol L^–1 H2O2 1 h) was “maintaining the redox state at the basal level”. The “antioxidant protection of cells against superoxide radical anion” value ([1]; pretreatment 25 μmol L^–1, 24 h, xanthine/xanthine oxidase 1 h) was “maintaining the redox state at the basal level”, the pKa [3] was 8.11 and the “pKa of the pyridine group” value [4] was < 3.
In the case of NC(=O)CCNCCNCCC(N)=O.[Cl-].[Cl-].[Cu+2] [[Cu(BCEN)]Cl2·2H2O], the IC50 [2] is listed as 0.179 ± 0.017 µM.
In the case of NC(=O)CCN1CCCN(CCC(N)=O)CC1.[Cl-].[Cl-].[Cu+2] [[Cu(BPAH)H2O]Cl2], the IC50 [2] is given as 0.129 ± 0.033 µM.
For NC(=O)CCN1CCN(CCC(N)=O)CC1.[Cl-].[Cl-].[Cu+2] [[Cu(BPAP)H2O]Cl2], the IC50 [2] is given as 0.168 ± 0.03 µM.
In the case of [Cl][Cu][Cl].c1ccc(CNCc2ccccn2)nc1 [[Cu(bmpa)Cl2]], the EC50 [5] is given as 1070 µM.
In the case of c1ccc(CNCc2ccccn2)nc1 [bis(2-pyridylmethyl)amine, reference compound], the pKa ([4]; amine group) is given as 7.28.
